Results from patent publication US8580762B2, “Substituted purine and 7-deazapurine compounds” (Epizyme, Inc., priority 2010, dated 2013).
pIC50: −log10 of the molar value.

Molecular target: DOT1L(1-416) (Homo sapiens, UniProt Q8TEK3)
Assay: Determination of IC50: DOT1L(1-416) methyltransferase assay, 3H-SAM, oligonucleosome substrate, Flashplate
Type: biochemical
Conditions: class symbols; read-out: DOT1L IC50
Method: Determination of IC50. Test compounds were serially diluted 3 fold in DMSO for 10 points and 1 μl was plated in a 384 well microtiter plate. […] 10 μl per well of substrate mix (same assay buffer with 200 nM S-[methyl-^3H]-adenosyl-L methionine, 600 nM of unlabeled […], and 20 nM oligonueleosome) was added to initiate the reaction. Reaction was incubated for 120 minutes at room temperature and quenched with 10 μl per well of 100 μM S-methyl-adenosyl-L methionine. For detection, substrate from 50 μl of reaction was immobilized on a 384 well Streptavidin coated Flashplate (Perkin Elmer) (also coated with 0.2% polyethyleneimine) and read on a Top Count scintillation counter (Perkin Elmer).

Chain of DOT1L(1-416) (Q8TEK3 1-416): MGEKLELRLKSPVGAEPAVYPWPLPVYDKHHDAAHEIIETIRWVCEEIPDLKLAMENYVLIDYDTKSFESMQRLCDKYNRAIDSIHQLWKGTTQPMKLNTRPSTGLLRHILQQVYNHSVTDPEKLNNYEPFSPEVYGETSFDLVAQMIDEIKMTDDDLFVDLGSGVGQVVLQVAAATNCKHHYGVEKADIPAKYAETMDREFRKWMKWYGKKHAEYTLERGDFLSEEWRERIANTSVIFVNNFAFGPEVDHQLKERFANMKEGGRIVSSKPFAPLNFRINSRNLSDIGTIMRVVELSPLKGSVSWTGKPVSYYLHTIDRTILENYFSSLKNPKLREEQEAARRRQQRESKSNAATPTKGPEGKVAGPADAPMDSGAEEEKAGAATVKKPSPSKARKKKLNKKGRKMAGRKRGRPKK

| SMILES | pIC50 |
| --- | --- |
| COCC(C)(C)c1ccc2[nH]c(CC[C@H]3C[C@H](N(C[C@H]4O[C@@H](n5cnc6c(N)ncnc65)[C@H](O)[C@@H]4O)C(C)C)C3)nc2c1 [Compound 121, (2R,3R,4S,5R)-2-(6-amino-9H-purin-9-yl)-5-((isopropyl((1s,3R)-3-(2-(5-(1-methoxy-2-methylpropan-2-yl)-1H-benzo[d]imidazol-2-yl)ethyl)cyclobutyl)amino)methyl) tetrahydrofuran-3,4-diol] | > 7.00 |
| CN(C[C@H]1O[C@@H](n2cnc3c(N)ncnc32)[C@H](O)[C@@H]1O)[C@H]1C[C@H](CCc2nc3cc(C4(C)CCC4)ccc3[nH]2)C1 [Compound 34] | > 7.00 |
| CC(C)N(CC1CC(Cc2nc3cc(C(F)(F)F)c(Cl)cc3[nH]2)C1)C[C@H]1C[C@@H](n2ccc3c(N)ncnc32)[C@H](O)[C@@H]1O (stereo partly drawn) [Compound 21, (1R,2S,3R,5R)-3-{4-amino-7H-pyrrolo[2,3-d]pyrimidin-7-yl}-5-({[(3-{[6-chloro-5-(trifluoromethyl)-1H-1,3-benzodiazol-2-yl]methyl}cyclobutyl)methyl](propan-2-yl)amino}methyl)cyclopentane-1,2-diol] | 5.00 to 6.00 |
| CN(C[C@@H]1C[C@@H](O)[C@H](n2ccc3c(N)ncnc32)C1)[C@H]1C[C@H](CCc2nc3cc(Cl)c(C(F)(F)F)cc3[nH]2)C1 [Compound 85, (1R,2R,4S)-2-(4-amino-7H-pyrrolo[2,3-d]pyrimidin-7-yl)-4-((((1s,3S)-3-(2-(5-chloro-6-(trifluoromethyl)-1H-benzo[d]imidazol-2-yl)ethyl)cyclobutyl) (methyl)amino)methyl) cyclopentanol] | 4.30 to 5.00 |
| CC(C)N(C[C@@H]1C[C@@H](O)[C@H](n2ccc3c(N)ncnc32)C1)[C@H]1C[C@@H](CCc2nc3cc(C(C)(C)C)ccc3[nH]2)C1 [Compound 101, (1R,2R,4S)-2-(4-amino-7H-pyrrolo[2,3-d]pyrimidin-7-yl)-4-((((1r,3R)-3-(2-(5-(tert-butyl)-1H-benzo[d]imidazol-2-yl)ethyl)cyclobutyl) (isopropyl)amino)methyl)cyclopentanol] | 6.00 to 7.00 |
| CN(CC1CC(Cc2nc3cc(C(F)(F)F)ccc3[nH]2)C1)C[C@H]1C[C@@H](n2ccc3c(N)ncnc32)[C@H](O)[C@@H]1O (stereo partly drawn) [Compound 18, (1R,2S,3R,5R)-3-{4-amino-7H-pyrrolo[2,3-d]pyrimidin-7-yl}-5-({methyl[(3-{[5-(trifluoromethyl)-1H-1,3-benzodiazol-2-yl]methyl}cyclobutyl)methyl]amino}methyl)cyclopentane-1,2-diol] | 6.00 to 7.00 |
| CN(C[C@H]1O[C@@H](n2cnc3c(N)ncnc32)[C@H](O)[C@@H]1O)[C@H]1C[C@H](CCc2nc3cc(C4COC4)ccc3[nH]2)C1 [Compound 65, (2R,3R,4S,5R)-2-(6-amino-9H-purin-9-yl)-5-((methyl((1s,3R)-3-(2-(5-(oxetan-3-yl)-1H-benzo[d]imidazol-2-yl)ethyl)cyclobutyl)amino)methyl)tetrahydrofuran-3,4-diol] | 6.00 to 7.00 |
| CC(C)N(C[C@H]1C[C@@H](n2ccc3c(N)ncnc32)[C@H](O)[C@@H]1O)[C@H]1C[C@H](CCc2nc3cc(OC(F)(F)F)ccc3[nH]2)C1 [Compound 61, (1R,2S,3R,5R)-3-(4-amino-7H-pyrrolo[2,3-d]pyrimidin-7-yl)-5-((isopropyl((1s,3R)-3-(2-(5-(trifluoromethoxy)-1H-benzo[d]imidazol-2-yl)ethyl)cyclobutyl)amino)methyl)cyclopentane-1,2-diol] | 6.00 to 7.00 |
| CC(C)N(C[C@@H]1C[C@@H](O)[C@H](n2ccc3c(N)ncnc32)C1)[C@H]1C[C@H](CCc2nc3cc(C(C)(C)C)ccc3[nH]2)C1 [Compound 104, (1R,2R,4S)-2-(4-amino-7H-pyrrolo[2,3-d]pyrimidin-7-yl)-4-((((1s,3S)-3-(2-(5-(tert-butyl)-1H-benzo[d]imidazol-2-yl)ethyl)cyclobutyl) (isopropyl)amino)methyl)cyclopentanol] | 5.00 to 6.00 |

Next, values leading:

| pIC50 | SMILES |
| --- | --- |
| > 7.00 | CCN(C[C@H]1O[C@@H](n2cnc3c(N)ncnc32)[C@H](O)[C@@H]1O)[C@H]1C[C@H](CCc2nc3cc(C(C)(C)C)ccc3[nH]2)C1 [Compound 74, (2R,3R,4S,5R)-2-(6-amino-9H-purin-9-yl)-5-((((1s,3R)-3-(2-(5-(tert-butyl)-1H-benzo[d]imidazol-2-yl)ethyl)cyclobutyl)(ethyl)amino)methyl)tetrahydrofuran-3,4-diol] |
| > 7.00 | CN(C[C@H]1C[C@@H](n2ccc3c(N)ncnc32)[C@H](O)[C@@H]1O)[C@H]1C[C@H](CCc2nc3cc(OC(F)(F)F)ccc3[nH]2)C1 [Compound 57, (1R,2S,3R,5R)-3-(4-amino-7H-pyrrolo[2,3-d]pyrimidin-7-yl)-5-((methyl((1s,3R)-3-(2-(5-(trifluoromethoxy)-1H-benzo[d]imidazol-2-yl)ethyl)cyclobutyl)amino)methyl)cyclopentane-1,2-diol] |
| > 7.00 | CC(C)N(C[C@H]1O[C@@H](n2ccc3c(N)ncnc32)[C@H](O)[C@@H]1O)[C@H]1C[C@H](CCc2nc3cc(OC(F)(F)F)ccc3[nH]2)C1 [Compound 76, (2R,3R,4S,5R)-2-(4-amino-7H-pyrrolo[2,3-d]pyrimidin-7-yl)-5-((isopropyl((1s,3R)-3-(2-(5-(trifluoromethoxy)-1H-benzo[d]imidazol-2-yl)ethyl)cyclobutyl)amino)methyl)tetrahydrofuran-3,4-diol] |
| > 7.00 | CC(C)N(C[C@H]1O[C@@H](n2cnc3c(N)ncnc32)[C@H](O)[C@@H]1O)C1CC(CCc2nc3cc(C4(C)CCC4)ccc3[nH]2)C1 (stereo partly drawn) [Compound 27, (2R,3R,4S,5R)-2-(6-amino-9H-purin-9-yl)-5-((isopropyl(3-(2-(5-(1-methylcyclobutyl)-1H-benzo[d]imidazol-2-yl)ethyl)cyclobutyl)amino)methyl)tetrahydrofuran-3,4-diol] |
| > 7.00 | CN(C[C@H]1C[C@@H](n2ccc3c(N)ncnc32)[C@H](O)[C@@H]1O)C1CC(CCc2nc3cc(C4(C)CCC4)ccc3[nH]2)C1 (stereo partly drawn) [Compound 29, (1R,2S,3R,5R)-3-(4-amino-7H-pyrrolo[2,3-d]pyrimidin-7-yl)-5-((methyl(3-(2-(5-(1-methylcyclobutyl)-1H-benzo[d]imidazol-2-yl)ethyl)cyclobutyl)amino)methyl)cyclopentane-1,2-diol] |
| > 7.00 | CN(C[C@H]1C[C@@H](n2ccc3c(N)ncnc32)[C@H](O)[C@@H]1O)[C@H]1C[C@@H](CCc2nc3cc(C(F)(F)F)c(Cl)cc3[nH]2)C1 [Compound 9, (1R,2S,3R,5R)-3-(4-amino-7H-pyrrolo[2,3-d]pyrimidin-7-yl)-5-((((1r,3S)-3-(2-(6-chloro-5-(trifluoromethyl)-1H-benzo[d]imidazol-2-yl)ethyl)cyclobutyl)(methyl)amino)methyl)cyclopentane-1,2-diol] |
| > 7.00 | CN(C[C@H]1O[C@@H](n2cnc3c(N)ncnc32)[C@H](O)[C@@H]1O)C1CC(CNC(=O)Nc2ccc(C(C)(C)C)cc2)C1 (stereo partly drawn) [Compound 110, 1-((3-((((2R,3S,4R,5R)-5-(6-amino-9H-purin-9-yl)-3,4-dihydroxytetrahydrofuran-2-yl)methyl)(methyl)amino)cyclobutyl)methyl)-3-(4-(tert-butyl)phenyl)urea] |
| > 7.00 | CN(C[C@H]1C[C@@H](n2ccc3c(N)ncnc32)[C@H](O)[C@@H]1O)[C@H]1C[C@@H](CCc2nc3cc(C(F)(F)F)ccc3[nH]2)C1 [Compound 10, (1R,2S,3R,5R)-3-(4-amino-7H-pyrrolo[2,3-d]pyrimidin-7-yl)-5-((methyl((1r,3S)-3-(2-(5-(trifluoromethyl)-1H-benzo[d]imidazol-2-yl)ethyl)cyclobutyl)amino)methyl)cyclopentane-1,2-diol] |
| > 7.00 | CC(C)N(C[C@H]1O[C@@H](n2cnc3c(N)ncnc32)[C@H](O)[C@@H]1O)[C@H]1C[C@H](CCc2nc3cc(C4CCC4)ccc3[nH]2)C1 [Compound 114, (2R,3R,4S,5R)-2-(6-amino-9H-purin-9-yl)-5-((((1s,3R)-3-(2-(5-cyclobutyl-1H-benzo[d]imidazol-2-yl)ethyl)cyclobutyl) (isopropyl)amino)methyl)tetrahydrofuran-3,4-diol] |
| > 7.00 | CC(C)(C)c1ccc2[nH]c(CC[C@H]3C[C@@H](N(CC4CC4)C[C@H]4C[C@@H](n5ccc6c(N)ncnc65)[C@H](O)[C@@H]4O)C3)nc2c1 [Compound 40, (1R,2S,3R,5R)-3-(4-amino-7H-pyrrolo[2,3-d]pyrimidin-7-yl)-5-((((1r,3S)-3-(2-(5-(tert-butyl)-1H-benzo[d]imidazol-2-yl)ethyl)cyclobutyl)(cyclopropylmethyl)amino)methyl)cyclopentane-1,2-diol] |
| > 7.00 | CC(C)N(C[C@H]1O[C@@H](n2cnc3c(N)ncnc32)[C@H](O)[C@@H]1O)C1CC(CCc2nc3cc(C4CCC4)ccc3[nH]2)C1 (stereo partly drawn) [Compound 67, (2R,3R,4S,5R)-2-(6-amino-9H-purin-9-yl)-5-[({3-[2-(5-cyclobutyl-1H-1,3-benzodiazol-2-yl)ethyl]cyclobutyl}(propan-2-yl)amino)methyl]oxolane-3,4-diol] |
| > 7.00 | CC(C)N(C[C@H]1O[C@@H](n2cnc3c(N)ncnc32)[C@H](O)[C@@H]1O)C1CC(CCc2nc3cc(C4(C#N)CCC4)ccc3[nH]2)C1 (stereo partly drawn) [Compound 117, 1-(2-(2-(3-((((2R,3S,4R,5R)-5-(6-amino-9H-purin-9-yl)-3,4-dihydroxytetrahydro-furan-2-yl)methyl)(isopropyl)amino)cyclobutyl)ethyl)-1H-benzo[d]imidazol-5-yl)cyclo-butanecarbonitrile] |
| > 7.00 | CC(C)N(C[C@H]1O[C@@H](n2cnc3c(N)ncnc32)[C@H](O)[C@@H]1O)[C@H]1C[C@@H](CCc2nc3cc(C(C)(C)C#N)ccc3[nH]2)C1 [Compound 128, 2-(2-(2-((1S,3r)-3-((((2R,3S,4R,5R)-5-(6-amino-9H-purin-9-yl)-3,4-dihydroxytetrahydro-furan-2-yl)methyl)(isopropyl)amino)cyclobutyl)ethyl)-1H-benzo[d]imidazol-5-yl)-2-methylpropanenitrile] |
